The values that follow come from patent US20080194637A1, “Small organic molecule regulators of cell proliferation” (Curis, Inc., priority 2006, published 2008).

Format in all cases: cell-based
Test [1] concerns sonic hedgehog pathway, Daoy human medulloblastoma cells. The experiment in a line: Human hedgehog reporter assay Daoy-GliLuc (DGL). An excerpt: (§1) Mouse (TM3: mouse Leydig cells; S12: mouse embryonic mesenchymal cells) and human (Daoy: human medulloblastoma cell; HepM: human embryonic palatal mesenchymal cell) cell lines are used to screen small molecules for their ability to modulate the activity of the sonic hedgehog pathway (Table 1, Table 2, and Table 3). Stable hedgehog pathway reporter cell lines are established by specific antibiotic selection following transfection of a reporter plasmid containing a luciferase gene located directly downstream from the gli promoter. Consequently, any observable changes in cellular luciferase activity may be attributed to changes in sonic hedgehog pathway activity in mouse and human cells, respectively, since gli is the major by-product of this pathway. To calculate activity, we generate an eleven point dose curve for each compound using 1:3 dilutions in 96 well assay plates. Each plate tested also contains low and high control to establish maximal pathway activation so to establish/compare a percentage activation of each tested compound (AMAX) on respective plates. Also we calculate EC50 values, or a concentration where the pathway will be exactly 50% activated, for each tested compound to determine potency. In these cell lines, compounds that register >20% AMAX values are considered active.
(§2) Stable hedgehog pathway reporter cell lines are established following specific antibiotic selection following transfection of a reporter plasmid In short, typically cells are plated in MicroTiter-plates at 10,000-20,000 cells per well, in growth media (containing 10%-20% FBS). After 48-72 hrs (HGL and DGL respectively) the media in the assay plates is switched to low-serum containing media (0.5% FBS). At that time compounds are added (at 1-5 μM) to the assay plates, in the presence or absence of hedgehog protein (octyl-modified version; 1-5 ng/ml). After another 24 hrs of incubation, the media from the assay plates is discarded and replaced with luciferase assay-mix. Subsequently, plates are incubated at RT for ˜15-30 mins and then read in a luminometer. [note: addition of the Hedgehog protein, although not critical, will sensitize the assay allowing the identification of weak actives].
A general note: A reporter such as luciferase makes a cellular process visible.

Test [2] concerns sonic hedgehog pathway, S12 mouse embryonic mesenchymal cells. Briefly: Hedgehog pathway Gli-luciferase reporter assay in S12 cells.
From the text: as §1, §2

In test [3] the test system is sonic hedgehog pathway, HepM human embryonic palatal mesenchymal cells. The experiment in a line: Human hedgehog reporter assay HEPM-GliLuc (HGL). The settings on record: HepM human embryonic palatal mesenchymal cells, gli-luciferase reporter, Table 1.
From the text: as §1, §2

In test [4] the test system is sonic hedgehog pathway, TM3 mouse Leydig cells. The experiment in a line: Hedgehog pathway Gli-luciferase reporter assay in TM3 cells. Conditions: Table 1.
From the text: as §1, §2

Setting [5] is: Daoy human cells, Gli-Luc, Table 2, read-out: Human Daoy (Gli-Luc) Avg. EC50.
The mark [6] stands for this setting: S12 mouse cells, Table 2, read-out: Mouse S12 Avg. EC50.
The mark [7] stands for this setting: Daoy human medulloblastoma cells, gli-luciferase reporter, Table 1, read-out: Daoy Avg. EC50.
Where [8] appears, read: S12 mouse embryonic mesenchymal cells, Table 1, read-out: S12 Avg. EC50.

Molecules are shown by their SMILES. Structures can show the parent of a compound that is named as a salt. Where two headings read alike, the source gives them in different places. A value given as a limit tells only on which side of the number the result lay.

The term EC50 denotes the concentration giving half of the maximal effect.

Take `CN[C@H]1CC[C@@H](N(Cc2cc(-c3cccc([S+](C)[O-])c3)ccc2OC)C(=O)c2sc3c(F)ccc(F)c3c2Cl)CC1` (some centres unmarked) [Compound 376, 3-Chloro-4,7-difluoro-benzo[b]thiophene-2-carboxylic acid (3′-methanesulfinyl-4-methoxy-biphenyl-3-ylmethyl)-(4-methylamino-cyclohexyl)-amide trifluoroacetate]: the EC50 in test [1] (setting [5]) and in test [2] (setting [6]) was < 50 nM in each case.

Consider `CN[C@H]1CC[C@@H](N(Cc2cc(-c3ccc([S+](C)[O-])cc3)ccc2OC)C(=O)c2sc3c(F)ccc(F)c3c2Cl)CC1` (some centres unmarked) [Compound 377, 3-Chloro-4,7-difluoro-benzo[b]thiophene-2-carboxylic acid (4′-methanesulfinyl-4-methoxy-biphenyl-3-ylmethyl)-(4-methylamino-cyclohexyl)-amide trifluoroacetate], for which the EC50 in test [1] (setting [5]) and in test [2] (setting [6]) was < 50 nM each time.

For `CN[C@H]1CC[C@@H](N(Cc2cc(-c3ccc(C(C)=O)cc3)ccc2OC)C(=O)c2sc3ccccc3c2Cl)CC1` [Compound 303, 3-Chloro-benzo[b]thiophene-2-carboxylic acid (4′-acetyl-4-methoxy-biphenyl-3-ylmethyl)-(4-methylamino-cyclohexyl)-amide hydrochloride], the half-maximal effective concentration (EC50) in test [1] (setting [7]), in test [3], in test [4] and in test [2] (setting [8]) was < 50 nM each time.

Take `COc1ccc(-c2cc[n+](C)cc2)cc1CN(C(=O)c1sc2c(F)ccc(F)c2c1Cl)[C@H]1CC[C@@H](N)CC1` [Compound 418]: the concentration for a half-maximal effect (EC50) in test [1] (Daoy human cells, gli-luciferase reporter, Table 3, read-out: Daoy Avg. EC50) is < 50 nM; in test [2] (S12 mouse embryonic mesenchymal cells, Table 3, read-out: S12 Avg. EC50) it was 1000 to 2500 nM.

Consider `CN[C@H]1CC[C@@H](N(Cc2cc(-c3cccc(SC)c3)ccc2OC)C(=O)c2sc3c(F)ccc(F)c3c2Cl)CC1` [Compound 372, 3-Chloro-4,7-difluoro-benzo[b]thiophene-2-carboxylic acid (4-methoxy-3′-methylsulfanyl-biphenyl-3-ylmethyl)-(4-methylamino-cyclohexyl)-amide hydrochloride], for which the concentration for a half-maximal effect (EC50) in test [1] (setting [5]) and in test [2] (setting [6]) was < 50 nM in each case.

As for `CN[C@H]1CC[C@@H](N(Cc2cc(-c3cccnc3)ccc2OC)C(=O)c2sc3cccc(F)c3c2Cl)CC1` [360 (R16), 3-Chloro-4-fluoro-benzo[b]thiophene-2-carboxylic acid (2-methoxy-5-pyridin-3-yl-benzyl)-(4-methylamino-cyclohexyl)-amide dihydrochloride], the EC50 in test [1] (setting [7]), in test [3], in test [4] and in test [2] (setting [8]) was < 50 nM each time.

As to `CN[C@H]1CC[C@@H](N(Cc2cc(-c3ccc(SC)cc3)ccc2OC)C(=O)c2sc3c(F)ccc(F)c3c2Cl)CC1` [Compound 373, 3-Chloro-4,7-difluoro-benzo[b]thiophene-2-carboxylic acid (4-methoxy-4′-methylsulfanyl-biphenyl-3-ylmethyl)-(4-methylamino-cyclohexyl)-amide hydrochloride], the 50% effective concentration (EC50) in test [1] (setting [5]) and in test [2] (setting [6]) was < 50 nM each time.

Consider `CN[C@H]1CC[C@@H](N(Cc2cc(-c3cc[n+]([O-])cc3)ccc2OC)C(=O)c2sc3c(F)ccc(F)c3c2Cl)CC1` [Compound 374, 4-(3-((3-chloro-4,7-difluoro-N-((1s,4s)-4-(methylamino)cyclohexyl)benzo[b]thiophene-2-carboxamido)methyl)-4-methoxyphenyl)pyridine 1-oxide], for which the 50% effective concentration (EC50) in test [1] (setting [5]) and in test [2] (setting [6]) was < 50 nM in each case.
